The values that follow are results of earlier work, collected in patent publication US8859603B2, “Method for solubilizing metronidazole” (Galderma S.A., priority 2004, dated 2014).

The conditions of this data set: no solubilizer.

Regarding `Cc1ncc([N+](=O)[O-])n1CCO` [metronidazole, 1-(2-hydroxyethyl)-2-methyl-5-nitroimidazole], the “intrinsic solubility of metronidazole in an aqueous phase” value is listed as ~0.9 % (m/m).
